Values quoted from earlier work, collected in article PMC6958329, “New ^55Co-labeled Albumin-Binding Folate Derivatives as Potential PET Agents for Folate Receptor Imaging” (Pharmaceuticals, 2019).
Where two headings read alike, the source gives them in different places.

System: tumor
Parameters: method as in PMID 27145400
Conditions: previously reported, cited from earlier work

| SMILES | tumor uptake (4 h post-injection) | tumor uptake (24 h post-injection) |
| --- | --- | --- |
| Nc1nc2ncc(CNc3ccc(C(=O)N[C@@H](CCC(=O)NC(CCCCNC(=O)CCC(C(=O)O)N4CCN(CC(=O)O)CCN(CC(=O)O)CC4)C(=O)NC(CCCCNC(=O)CCCc4ccc(I)cc4)C(=O)O)C(=O)O)cc3)nc2c(=O)[nH]1.[64Cu] (stereo partly drawn) [[^64Cu]Cu-rf42] | 14.5% ± 1.0% | 16% ± 4% |
| Nc1nc2ncc(CNc3ccc(C(=O)N[C@@H](CCC(=O)NC(CCCCNC(=O)CCC(C(=O)O)N4CCN(CC(=O)O)CCN(CC(=O)O)CC4)C(=O)NC(CCCCNC(=O)CCCc4ccc(I)cc4)C(=O)O)C(=O)O)cc3)nc2c(=O)[nH]1.[68Ga] (stereo partly drawn) [[^68Ga]Ga-rf42] | 12% ± 2% |  |
